Results: patent US5889147A (University of Utah Research Foundation, priority 1997, dated 1999)
Entries after “also recorded” stand apart in the source; their conditions may differ. Positions of bridges follow the written chain, without caps; N, C: chain ends. Non-standard residues stand in square brackets, D forms with d. Residues, ends and D or L forms follow the SMILES beside them. Trp(6-Br) = N[C@@H](Cc1c[nH]c2cc(Br)ccc12)C(=O)O; Hyp = O=C(O)[C@@H]1C[C@@H](O)CN1

Tests used:
[1] = test system: mice; conditions: mouse, in vivo
[2] = target: T1, serotonin 5HT3 receptor (Homo sapiens, UniProt P46098)
T1 sequence (P46098 24-478): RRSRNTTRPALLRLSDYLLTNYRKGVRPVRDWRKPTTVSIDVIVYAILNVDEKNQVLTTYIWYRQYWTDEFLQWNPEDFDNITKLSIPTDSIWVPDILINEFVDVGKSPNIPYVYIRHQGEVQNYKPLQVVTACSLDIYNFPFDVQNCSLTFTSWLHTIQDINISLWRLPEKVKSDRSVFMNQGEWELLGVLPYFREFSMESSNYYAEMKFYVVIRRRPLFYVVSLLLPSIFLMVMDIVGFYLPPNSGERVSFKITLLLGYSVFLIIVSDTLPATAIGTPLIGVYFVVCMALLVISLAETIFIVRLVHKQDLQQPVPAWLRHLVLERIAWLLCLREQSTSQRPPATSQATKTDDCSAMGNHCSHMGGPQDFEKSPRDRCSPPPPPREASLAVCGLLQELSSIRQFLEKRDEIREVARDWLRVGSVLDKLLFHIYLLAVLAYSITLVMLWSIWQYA

[3] = test system: Frings audiogenic seizure susceptible mice; conditions: mouse, in vivo
[4] = test system: CF No. 1 mice; conditions: mouse, in vivo, sc
[5] = test system: mice; conditions: mouse

NCC(=O)N[C@H]1CSSC[C@@H](C(N)=O)NC(=O)[C@H](Cc2c[nH]c3cc(Br)ccc23)NC(=O)[C@@H]2CCCN2C(=O)[C@H](CCC(=O)O)NC(=O)[C@@H](Cc2c[nH]c3ccccc23)NC(=O)[C@@H]2C[C@@H](O)CN2C1=O [bromocontryphan, GCX1 X2 EPX5 C--NH2, X1 is Hyp, X2 is D-Trp and X5 is 6-bromo-L-Trp] (H-GC[Hyp][dW]EP[Trp(6-Br)]C-NH2; disulfide 2-8)
biological activity in mammalian systems, compared with contryphan R and des[Gly1]contryphan R [1]: very similar to the spectrum of activity previously observed for both contryphan R and des[Gly^1 ]contryphan R

Gly-Cys-Thr-Arg-Thr-Cys-Gly-Gly-Xaa1 -Lys-Cys-Thr-Gly-Thr-Cys-Thr-Cys-Thr-Asn-Ser-Ser-Lys-Cys-Gly-Cys-Arg-Tyr-Asn-Val-His-Pro-Ser-Gly-Xaa2 -Gly-Cys-Gly-Cys-Ala-Cys-Ser, where Xaa1 is Hyp and Xaa2 is 6-bromo-L-tryptophan [sigma conotoxin]
receptor targeted [2]: targets the serotonin 5HT3 receptor

Xaa1 -Ala-Thr-Ile-Asp-Xaa2 -Cys-Xaa2-Xaa2 -Thr-Cys-Asn-Val-Thr-Phe-Lys-Thr-Cys-Cys-Gly-Xaa3-Xaa3-Gly-Asp-Trp-Gln-Cys-Val-Xaa2-Ala-Cys-Pro-Val-OH, where Xaa3 =hydroxyproline, Xaa2 =Gla and Xaa1 =bromotryptophan [Bromosleeper Peptide]
anticonvulsant activity [3]: seen to have activity in this model | anticonvulsant activity [4]: found to have anticonvulsant activity | in vivo effect in very young (<2 weeks old) and older (>3 weeks old) mice [5]: induced sleep in mice of both age groups | Observed Effects in Mice: lethargic/drowsy after (onset time) ([5]; in vivo): ≈ 15 min; also recorded: ≈ 19 min; also recorded: ≈ 11 min | dependence of potency on the age of the mice ([5]; in vivo): more potent in 9-day-old mice than in the older mice
